From EP0908457B1, “3-(1,2-benzisothiazol- and isoxazol-5-Y1)-2,4(1H,3H)-pyrimidinedione or thione and 3-(1,2-benzisothiazol- and isoxazol-5-y1)-4(3H)-pyrimidinone or thione herbicidal agents” (BASF AKTIENGESELLSCHAFT, priority 1997, dated 1999)

Tests used:
[1] = system: Oryza sativa, (L.) Tebonnet; assay: Rice tolerance to post-transplant applications under flooded paddy conditions (Example 187), ORYSAT (Rice, Tebonnet); details: rated three to four weeks after treatment
[2] = system: Echinochloa oryzoides (Ard.) Fritsch.; assay: Preemergence weed control under flooded paddy conditions, ECHORC (Watergrass (Calif.)); format: in vivo; details: preemergence, flooded paddy, rated three to four weeks after treatment; for herbicidal effect rating, ECHORC: meaning of each grade not given here
Sagittaria pygmaea, L. = assay: Preemergence weed control under flooded paddy conditions, SAGPY (Arrowhead (Pygmaea)); format: in vivo; details: preemergence, flooded paddy, rated three to four weeks after treatment; for herbicidal effect rating, SAGPY: meaning of each grade not given here
[3] = system: Cyperus serotinus, Rottb.; assay: Preemergence weed control under flooded paddy conditions, CYPSE (Flatsedge); format: in vivo; details: preemergence, rated three to four weeks after treatment; for herbicidal effect rating, CYPSE: meaning of each grade not given here
Cyperus iria = assay: Preemergence weed control under flooded paddy conditions, CYPIR (Rice Flatsedge); format: in vivo; details: preemergence, flooded paddy, rated three to four weeks after treatment; for herbicidal effect rating, CYPIR: meaning of each grade not given here
[4] = system: Monochoria vaginalis, Presl.; assay: Preemergence weed control under flooded paddy conditions, MOOVA (Monochoria); format: in vivo; details: preemergence, flooded paddy, rated three to four weeks after treatment; for herbicidal effect rating, MOOVA: meaning of each grade not given here

Cc1nsc2ccc(-n3c(=O)c(Cl)c(C(F)(F)F)n(C)c3=O)cc12 [Example 271, 2,4(1H,3H)-Pyrimidinedione, 5-chloro-1-methyl-3-(3-methyl-1,2-benzisothiazol-5-yl)-6-(trifluoromethyl)-]
9.0: MOOVA herbicidal effect rating ([4]; Rate 0.2500 kg/ha) | MOOVA herbicidal effect rating ([4]; Rate 0.5000 kg/ha)
3.0: ORYSAT herbicidal effect rating ([1]; Rate 0.2500 kg/ha)
4.0: MOOVA herbicidal effect rating ([4]; Rate 0.1250 kg/ha)
1.0: ORYSAT herbicidal effect rating ([1]; Rate 0.0620 kg/ha)
2.0: ORYSAT herbicidal effect rating ([1]; Rate 0.1250 kg/ha)
0.0: ORYSAT herbicidal effect rating ([1]; Rate 0.5000 kg/ha) | ECHORC herbicidal effect rating ([2]; Rate 0.0620 kg/ha) | ECHORC herbicidal effect rating ([2]; Rate 0.1250 kg/ha) | ECHORC herbicidal effect rating ([2]; Rate 0.2500 kg/ha) | ECHORC herbicidal effect rating ([2]; Rate 0.5000 kg/ha) | SAGPY herbicidal effect rating (Sagittaria pygmaea, L.; Rate 0.0620 kg/ha) | SAGPY herbicidal effect rating (Sagittaria pygmaea, L.; Rate 0.1250 kg/ha) | SAGPY herbicidal effect rating (Sagittaria pygmaea, L.; Rate 0.2500 kg/ha) | SAGPY herbicidal effect rating (Sagittaria pygmaea, L.; Rate 0.5000 kg/ha) | CYPSE herbicidal effect rating ([3]; Rate 0.0620 kg/ha) | CYPSE herbicidal effect rating ([3]; Rate 0.1250 kg/ha) | CYPSE herbicidal effect rating ([3]; Rate 0.2500 kg/ha) | CYPSE herbicidal effect rating ([3]; Rate 0.5000 kg/ha) | CYPIR herbicidal effect rating (Cyperus iria; Rate 0.0620 kg/ha) | CYPIR herbicidal effect rating (Cyperus iria; Rate 0.1250 kg/ha) | CYPIR herbicidal effect rating (Cyperus iria; Rate 0.2500 kg/ha) | CYPIR herbicidal effect rating (Cyperus iria; Rate 0.5000 kg/ha) | MOOVA herbicidal effect rating ([4]; Rate 0.0620 kg/ha)

Cc1ccc(OCC(=O)OC(C)(C)C)c(-c2noc3ccc(-n4c(=O)cc(C(F)(F)F)n(C)c4=O)c(Cl)c23)c1 [Example 265, Acetic acid, {{2-{4-chloro-5-[3,6-dihydro-3-methyl-2,6-dioxo-4-(trifluoromethyl)-1(2H)-pyrimidinyl]-1,2-benzisoxazol-3-yl}-p-tolyl}oxy}-, tert-butyl ester]
3.0: CYPIR herbicidal effect rating (Cyperus iria; Rate 0.2500 kg/ha)
9.0: MOOVA herbicidal effect rating ([4]; Rate 0.0320 kg/ha) | MOOVA herbicidal effect rating ([4]; Rate 0.0620 kg/ha) | MOOVA herbicidal effect rating ([4]; Rate 0.1250 kg/ha) | MOOVA herbicidal effect rating ([4]; Rate 0.2500 kg/ha)
0.0: ORYSAT herbicidal effect rating ([1]; Rate 0.0320 kg/ha) | ORYSAT herbicidal effect rating ([1]; Rate 0.0620 kg/ha) | ORYSAT herbicidal effect rating ([1]; Rate 0.1250 kg/ha) | ORYSAT herbicidal effect rating ([1]; Rate 0.2500 kg/ha) | ECHORC herbicidal effect rating ([2]; Rate 0.0320 kg/ha) | ECHORC herbicidal effect rating ([2]; Rate 0.0620 kg/ha) | ECHORC herbicidal effect rating ([2]; Rate 0.1250 kg/ha) | ECHORC herbicidal effect rating ([2]; Rate 0.2500 kg/ha) | SAGPY herbicidal effect rating (Sagittaria pygmaea, L.; Rate 0.0320 kg/ha) | SAGPY herbicidal effect rating (Sagittaria pygmaea, L.; Rate 0.0620 kg/ha) | SAGPY herbicidal effect rating (Sagittaria pygmaea, L.; Rate 0.1250 kg/ha) | SAGPY herbicidal effect rating (Sagittaria pygmaea, L.; Rate 0.2500 kg/ha) | CYPSE herbicidal effect rating ([3]; Rate 0.0320 kg/ha) | CYPSE herbicidal effect rating ([3]; Rate 0.0620 kg/ha) | CYPSE herbicidal effect rating ([3]; Rate 0.1250 kg/ha) | CYPSE herbicidal effect rating ([3]; Rate 0.2500 kg/ha) | CYPIR herbicidal effect rating (Cyperus iria; Rate 0.0320 kg/ha) | CYPIR herbicidal effect rating (Cyperus iria; Rate 0.0620 kg/ha) | CYPIR herbicidal effect rating (Cyperus iria; Rate 0.1250 kg/ha)

Cn1c(C(F)(F)F)cc(=O)n(-c2ccc3snc(C(C#N)=Cc4ccccn4)c3c2)c1=O [Example 592, 1,2-Benzisothiazole-3-acetonitrile, 5-[3,6-dihydro-3-methyl-2,6-dioxo-4-(trifluoromethyl)-1(2H)-pyrimidinyl]-alpha-(2-pyridylmethylene)-]
9.0: herbicidal effect rating, MOOVA ([4]; Rate 0.0620 kg/ha) | herbicidal effect rating, MOOVA ([4]; Rate 0.1250 kg/ha) | herbicidal effect rating, MOOVA ([4]; Rate 0.2500 kg/ha)
5.0: herbicidal effect rating, ECHORC ([2]; Rate 0.2500 kg/ha)
0.0: herbicidal effect rating, ECHORC ([2]; Rate 0.0320 kg/ha) | herbicidal effect rating, SAGPY (Sagittaria pygmaea, L.; Rate 0.0320 kg/ha) | herbicidal effect rating, CYPSE ([3]; Rate 0.0320 kg/ha) | herbicidal effect rating, CYPSE ([3]; Rate 0.1250 kg/ha)
2.0: herbicidal effect rating ORYSAT ([1]; Rate 0.0320 kg/ha) | herbicidal effect rating ORYSAT ([1]; Rate 0.0620 kg/ha) | herbicidal effect rating, CYPIR (Cyperus iria; Rate 0.0320 kg/ha)
8.0: herbicidal effect rating, MOOVA ([4]; Rate 0.0320 kg/ha)
3.0: herbicidal effect rating, ECHORC ([2]; Rate 0.0620 kg/ha) | herbicidal effect rating, SAGPY (Sagittaria pygmaea, L.; Rate 0.0620 kg/ha) | herbicidal effect rating, SAGPY (Sagittaria pygmaea, L.; Rate 0.1250 kg/ha) | herbicidal effect rating, CYPIR (Cyperus iria; Rate 0.0620 kg/ha)
4.0: herbicidal effect rating ORYSAT ([1]; Rate 0.1250 kg/ha) | herbicidal effect rating ORYSAT ([1]; Rate 0.2500 kg/ha) | herbicidal effect rating, ECHORC ([2]; Rate 0.1250 kg/ha) | herbicidal effect rating, CYPIR (Cyperus iria; Rate 0.1250 kg/ha)
6.0: herbicidal effect rating, CYPIR (Cyperus iria; Rate 0.2500 kg/ha)

Cn1c(C(F)(F)F)cc(=O)n(-c2ccc3snc(C(=O)NO)c3c2)c1=O [Example 471, 1,2-Benzisothiazole-3-carbohydroxamic acid, 5-[3,6-dihydro-3-methyl-2,6-dioxo-4-(trifluoromethyl)-1(2H)-pyrimidinyl]-]
2.0: ORYSAT herbicidal rating (rice tolerance) ([1]; 0.0320 kg/ha)
7.0: SAGPY herbicidal rating (Sagittaria pygmaea, L.; 0.2500 kg/ha) | CYPSE herbicidal rating ([3]; 0.2500 kg/ha) | MOOVA herbicidal rating ([4]; 0.0620 kg/ha)
3.0: ORYSAT herbicidal rating (rice tolerance) ([1]; 0.0620 kg/ha) | ECHORC herbicidal rating ([2]; 0.0620 kg/ha) | SAGPY herbicidal rating (Sagittaria pygmaea, L.; 0.0620 kg/ha) | CYPSE herbicidal rating ([3]; 0.0320 kg/ha)
0.0: ECHORC herbicidal rating ([2]; 0.0320 kg/ha) | SAGPY herbicidal rating (Sagittaria pygmaea, L.; 0.0320 kg/ha)
6.0: ECHORC herbicidal rating ([2]; 0.1250 kg/ha) | CYPIR herbicidal rating (Cyperus iria; 0.0320 kg/ha) | CYPIR herbicidal rating (Cyperus iria; 0.0620 kg/ha) | MOOVA herbicidal rating ([4]; 0.0320 kg/ha)
5.0: ORYSAT herbicidal rating (rice tolerance) ([1]; 0.1250 kg/ha) | ORYSAT herbicidal rating (rice tolerance) ([1]; 0.2500 kg/ha) | SAGPY herbicidal rating (Sagittaria pygmaea, L.; 0.1250 kg/ha)
9.0: ECHORC herbicidal rating ([2]; 0.2500 kg/ha) | CYPIR herbicidal rating (Cyperus iria; 0.1250 kg/ha) | CYPIR herbicidal rating (Cyperus iria; 0.2500 kg/ha) | MOOVA herbicidal rating ([4]; 0.1250 kg/ha) | MOOVA herbicidal rating ([4]; 0.2500 kg/ha)

COC(=O)C(C)Oc1ccc(C)cc1-c1nsc2ccc(-n3c(=S)cc(C(F)(F)F)n(C)c3=O)cc12 (centres unmarked) [Example 33, Methyl 2-{{2-{5-[3,6-dihydro-3-methyl-2-oxo-6-thioxo-4-(trifluoromethyl)-1(2H)-pyrimidinyl]-1,2-benzisothiazol-3-yl}-p-tolyl}oxy}propionate]
8.5: herbicidal effect rating, ECHORC ([2]; 0.0625 kg/ha)
3.0: herbicidal effect rating, ORYSAT (rice tolerance) ([1]; 0.0625 kg/ha) | herbicidal effect rating, ORYSAT (rice tolerance) ([1]; 0.1250 kg/ha)
3.5: herbicidal effect rating, ORYSAT (rice tolerance) ([1]; 0.2500 kg/ha)
7.5: herbicidal effect rating, ECHORC ([2]; 0.0313 kg/ha)
0.0: herbicidal effect rating, SAGPY (Sagittaria pygmaea, L.; 0.0313 kg/ha) | herbicidal effect rating, SAGPY (Sagittaria pygmaea, L.; 0.0625 kg/ha) | herbicidal effect rating, SAGPY (Sagittaria pygmaea, L.; 0.1250 kg/ha) | herbicidal effect rating, SAGPY (Sagittaria pygmaea, L.; 0.2500 kg/ha) | herbicidal effect rating, CYPSE ([3]; 0.0313 kg/ha) | herbicidal effect rating, CYPSE ([3]; 0.0625 kg/ha) | herbicidal effect rating, CYPSE ([3]; 0.1250 kg/ha) | herbicidal effect rating, CYPSE ([3]; 0.2500 kg/ha) | herbicidal effect rating, CYPIR (Cyperus iria; 0.0313 kg/ha) | herbicidal effect rating, CYPIR (Cyperus iria; 0.0625 kg/ha)
4.0: herbicidal effect rating, CYPIR (Cyperus iria; 0.2500 kg/ha)
2.0: herbicidal effect rating, ORYSAT (rice tolerance) ([1]; 0.0313 kg/ha) | herbicidal effect rating, CYPIR (Cyperus iria; 0.1250 kg/ha)
9.0: herbicidal effect rating, ECHORC ([2]; 0.1250 kg/ha) | herbicidal effect rating, ECHORC ([2]; 0.2500 kg/ha) | herbicidal effect rating, MOOVA ([4]; 0.0313 kg/ha) | herbicidal effect rating, MOOVA ([4]; 0.0625 kg/ha) | herbicidal effect rating, MOOVA ([4]; 0.1250 kg/ha) | herbicidal effect rating, MOOVA ([4]; 0.2500 kg/ha)

Cn1c(C(F)(F)F)cc(=O)n(-c2ccc3snc(C(=O)NS(=O)(=O)CCc4ccccc4)c3c2)c1=O [Example 485, 1,2-Benzisothiazole-3-carboxamide, 5-[3,6-dihydro-3-methyl-2,6-dioxo-4-(trifluoromethyl)-1(2H)-pyrimidinyl]-N-(phenethylsulfonyl)-]
8.0: MOOVA herbicidal rating ([4]; 0.2500 kg/ha)
0.0: ORYSAT herbicidal rating (rice tolerance) ([1]; 0.0320 kg/ha) | SAGPY herbicidal rating (Sagittaria pygmaea, L.; 0.0320 kg/ha) | SAGPY herbicidal rating (Sagittaria pygmaea, L.; 0.0620 kg/ha) | SAGPY herbicidal rating (Sagittaria pygmaea, L.; 0.1250 kg/ha) | CYPSE herbicidal rating ([3]; 0.0320 kg/ha) | CYPSE herbicidal rating ([3]; 0.0620 kg/ha)
5.0: ORYSAT herbicidal rating (rice tolerance) ([1]; 0.2500 kg/ha) | CYPIR herbicidal rating (Cyperus iria; 0.1250 kg/ha)
6.0: ECHORC herbicidal rating ([2]; 0.0620 kg/ha) | ECHORC herbicidal rating ([2]; 0.1250 kg/ha) | CYPIR herbicidal rating (Cyperus iria; 0.2500 kg/ha) | MOOVA herbicidal rating ([4]; 0.0620 kg/ha)
7.0: MOOVA herbicidal rating ([4]; 0.1250 kg/ha)
3.0: SAGPY herbicidal rating (Sagittaria pygmaea, L.; 0.2500 kg/ha)
9.0: ECHORC herbicidal rating ([2]; 0.2500 kg/ha)
4.0: ORYSAT herbicidal rating (rice tolerance) ([1]; 0.1250 kg/ha) | ECHORC herbicidal rating ([2]; 0.0320 kg/ha) | CYPIR herbicidal rating (Cyperus iria; 0.0620 kg/ha) | MOOVA herbicidal rating ([4]; 0.0320 kg/ha)
2.0: ORYSAT herbicidal rating (rice tolerance) ([1]; 0.0620 kg/ha) | CYPIR herbicidal rating (Cyperus iria; 0.0320 kg/ha)
